# Reference: patent publication US10669245B2, “Certain (2S)-N-[(1S)-1-cyano-2-phenylethyl]-1,4-oxazepane-2-carboxamides dipeptidyl peptidase 1 inhibitors” (AstraZeneca AB, priority 2014, dated 2020)
# How the values were obtained:
# [1] = Test B: In-Vitro Competitive Aortic Tissue Binding Assay; set-up: species or system Han Wistar rats; conditions: 100 μM compound, competition with [14C]-labelled WO2010/128324 Ex. 3 in rat aortic homogenate; four categories
# Procedure: To assist the design of DPP1 inhibitors with a decreased risk of binding to elastin rich tissues, such as the aorta, the in-vitro competitive aortic binding assay disclosed below (Test B) was developed to facilitate the selection process.
# Test B: In-Vitro Competitive Aortic Tissue Binding Assay
# Aortic homogenate was prepared from the thoracic aortae of Han Wistar rats. Freshly isolated to thoracic aortae were frozen, and later thawed and stripped of non-elastic material. […] Homogenate concentration was adjusted to 30 mg/mL in Puck's saline, and aliquots were stored at −80° C. until use. Positive and negative control compounds and test compounds were made up to 100 mM in DMSO, and added to 1 mL aliquots of aortic homogenate in Puck's saline for a final concentration of 100 μM. Homogenate samples were pre-incubated with test compounds at 37° C., rotating, overnight. [^14C]4-Amino-N-[(1S)-1-cyano-2-(4′-cyanobiphenyl-4-yl)ethyl]tetrahydro-2H-pyran-4-carboxamide was then added to all samples to a final concentration of 100 μM, and samples were incubated at 37° C., rotating, for a further 2 h. Protein was precipitated from each sample by the addition of 10 mL acetone, pre-chilled to −20° C. Samples were left overnight at −20° C. to allow complete precipitation. Precipitate was pelleted by centrifugation at 4,500×g at 4° C. for 20 min, an aliquot of supernatant was removed for analysis, and the remainder of the supernatant discarded. Precipitate was washed by resuspension in 10 mL 80% methanol in distilled water, and re-pelleted by centrifugation at 4,500×g at 4° C. for 20 min. […] After final wash, precipitate was air-dried, and dissolved overnight in 1 mL NCSII Tissue Solubiliser. 1 mL aliquots of supernatants were added to 5 mL Ultima Gold scintillation fluid (Perkin Elmer, Mass., U.S.A.), and 1 mL solubilised pellets were added to 5 mL Hionic-Fluor scintillation fluid (Perkin Elmer, Mass., U.S.A.). Radioactivity of samples was determined on a Beckman LS6500 multipurpose scintillation counter (Beckman Coulter, Ind., U.S.A.). […] Duplicate samples were tested for each compound on each experimental occasion, and at least two experiments were run for each test compound. […] 1-way ANOVA and Bonferroni's multiple comparison tests were performed to calculate significance of differences from vehicle control.
# [2] = target: Recombinant Human (RH) DPP1 (Homo sapiens (Human), UniProt P53634); experiment: Test A1: Fluorescence Assay for Recombinant Human (RH) DPP1; format: biochemical; conditions: Test A1, rhDPP1, H-Gly-Arg-AMC substrate (Examples 1-35)
# Procedure: Test A1: Fluorescence Assay for Recombinant Human (RH) DPP1
# The activity of DPP1 was determined by measuring the enzymatic release of aminomethyl coumarin (AMC) from the peptide substrate (H-Gly-Arg-AMC), which leads to an increase in fluorescence intensity at λex=350 nm and λem=450 nm. The assay was carried out in black 384 well plates in a final volume of 50 μl at 22° C. The assay conditions contained the following: 25 mM piperazine buffer pH 5.0; 50 mM NaCl, 5 mM DTT; 0.01% (v/v) Triton X-100; 100 μM H-Gly-Arg-AMC and rhDPP1 (˜50 pM). […] Routinely, inhibitors were pre-incubated with rhDPP1 for 30-60 min prior to the addition of the peptide substrate to start the reaction for a further 60 min at 22° C.
# [3] = rat quantitative whole-body autoradiography (QWBA) studies; format: in vivo
# [4] = described in literature (Schmidt et al. 1984); cited from earlier work
# Recombinant Human (RH) DPP1, sequence (P53634 231-394): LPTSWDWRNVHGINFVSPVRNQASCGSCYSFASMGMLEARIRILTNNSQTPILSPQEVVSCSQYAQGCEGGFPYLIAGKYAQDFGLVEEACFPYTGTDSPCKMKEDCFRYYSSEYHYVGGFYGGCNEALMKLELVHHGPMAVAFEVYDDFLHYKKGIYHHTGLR
# Recombinant Human (RH) DPP1, sequence (P53634 25-143): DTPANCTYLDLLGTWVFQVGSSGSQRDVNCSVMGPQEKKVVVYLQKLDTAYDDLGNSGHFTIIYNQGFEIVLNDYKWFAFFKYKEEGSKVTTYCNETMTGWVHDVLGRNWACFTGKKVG
# Recombinant Human (RH) DPP1, sequence (P53634 395-463): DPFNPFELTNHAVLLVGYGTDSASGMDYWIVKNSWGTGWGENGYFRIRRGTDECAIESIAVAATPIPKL
smiles,measurement,setting,value
"Cn1c(=O)oc2ccc(-c3ccc(C[C@@H](C#N)NC(=O)[C@@H]4CNCCCO4)cc3)cc21 [Example 2, (2S)—N-{(1S)-1-Cyano-2-[4-(3-methyl-2-oxo-2,3-dihydro-1,3-benzoxazol-5-yl)phenyl]ethyl}-1,4-oxazepane-2-carboxamide]",Aortic Tissue Binding,[1],No binder
"N#C[C@H](Cc1ccc(-c2ccc(C(N)=O)c(F)c2)cc1)NC(=O)[C@@H]1CNCCCO1 [Example 23, (2S)-N-[(1S)-2-(4′-Carbamoyl-3′-fluorobiphenyl-4-yl)-1-cyanoethyl]-1,4-oxazepane-2-carboxamide]","DPP1 activity, pIC50",[2],7.17
"CS(=O)(=O)c1ccc(-c2ccc(C[C@@H](C#N)NC(=O)[C@@H]3CNCCCO3)cc2)cc1 [Example 30, (2S)-N-{(1S)-1-Cyano-2-[4′-(methylsulfonyl)biphenyl-4-yl]ethyl}-1,4-oxazepane-2-carboxamide]","DPP1 activity, pIC50",[2],7.43
N#Cc1ccc(-c2ccc(C[C@@H](C#N)NC(=O)[C@@H]3CCCCN3)cc2)cc1 [WO2009/074829 (Example 24)],Aortic Tissue Binding,[1],Binder
Cn1c(=O)oc2ccc(-c3ccc(C[C@@H](C#N)NC(=O)[C@@H]4CCCCN4)cc3)cc21 [WO2009/074829 (Example 96)],Aortic Tissue Binding,[1],Medium binder
"N#Cc1ccc(-c2ccc(C[C@@H](C#N)NC(=O)C3(N)CCOCC3)cc2)cc1 [WO2010/128324 (Ex. 3), 4-amino-N-[(1S)-1-cyano-2-(4′-cyanobiphenyl-4-yl)ethyl]tetrahydro-2H-pyran-4-carboxamide]",aortic retention in QWBA,[3],high level of aortic retention
same,Aortic Tissue Binding,[1],Strong binder (reference)
Cn1c(=O)oc2ccc(-c3ccc(C[C@@H](C#N)NC(=O)C4(N)CCOCC4)cc3)cc21 [WO2010/128324 (Example 17)],Aortic Tissue Binding,[1],Strong binder
CC(c1ccc(Cl)c(Cl)c1)N1N=C(N)CC1=O (stereo not drawn) [muzolimine],retention in the aorta in QWBA,[4],retained selectively in the aorta
